Literature values in paper PMC4369175 (Journal of photochemistry and photobiology. B, Biology, 2015).
Like-named read-outs stand apart in the source and are kept apart here.

Key:
[1] = standard value

| Structure (SMILES) | Φf of fluorescence standard ([1]; in ethanol) | ΦΔ singlet oxygen quantum yield of the reference standard | Φf of fluorescence standard ([1]; in methanol) |
| --- | --- | --- | --- |
| CC/N=c1\cc2oc3cc(NCC)c(C)cc3c(-c3ccccc3C(=O)OCC)c-2cc1C [Rhodamine 6G] | 0.95 | – | – |
| CN(C)c1ccc2nc3ccc(=[N+](C)C)cc-3sc2c1 [methylene blue] | – | 0.52 | 0.03 |
